From EP3723746B1, “PHENOXY ACIDS FOR THE TREATMENT OF NEUROMUSCULAR DISORDERS” (NMD Pharma A/S, priority 2017, dated 2019)

Key:
[1] = target: T1, CIC-1 channels (Rattus norvegicus, UniProt P35524); test: Electrophysiological measurement of compound inhibition of CIC-1 in rat muscle (Gm, three micro-electrode technique, soleus muscle fibres); format: cell-based; settings: reduction of Gm in rat soleus muscle fibres, approx. 30°C; mean ± spread, n = number of experiments
T1 construct: from tissue; host or cells: whole soleus muscle of 12-14 week old Wistar rats
T1 sequence (P35524 1-994): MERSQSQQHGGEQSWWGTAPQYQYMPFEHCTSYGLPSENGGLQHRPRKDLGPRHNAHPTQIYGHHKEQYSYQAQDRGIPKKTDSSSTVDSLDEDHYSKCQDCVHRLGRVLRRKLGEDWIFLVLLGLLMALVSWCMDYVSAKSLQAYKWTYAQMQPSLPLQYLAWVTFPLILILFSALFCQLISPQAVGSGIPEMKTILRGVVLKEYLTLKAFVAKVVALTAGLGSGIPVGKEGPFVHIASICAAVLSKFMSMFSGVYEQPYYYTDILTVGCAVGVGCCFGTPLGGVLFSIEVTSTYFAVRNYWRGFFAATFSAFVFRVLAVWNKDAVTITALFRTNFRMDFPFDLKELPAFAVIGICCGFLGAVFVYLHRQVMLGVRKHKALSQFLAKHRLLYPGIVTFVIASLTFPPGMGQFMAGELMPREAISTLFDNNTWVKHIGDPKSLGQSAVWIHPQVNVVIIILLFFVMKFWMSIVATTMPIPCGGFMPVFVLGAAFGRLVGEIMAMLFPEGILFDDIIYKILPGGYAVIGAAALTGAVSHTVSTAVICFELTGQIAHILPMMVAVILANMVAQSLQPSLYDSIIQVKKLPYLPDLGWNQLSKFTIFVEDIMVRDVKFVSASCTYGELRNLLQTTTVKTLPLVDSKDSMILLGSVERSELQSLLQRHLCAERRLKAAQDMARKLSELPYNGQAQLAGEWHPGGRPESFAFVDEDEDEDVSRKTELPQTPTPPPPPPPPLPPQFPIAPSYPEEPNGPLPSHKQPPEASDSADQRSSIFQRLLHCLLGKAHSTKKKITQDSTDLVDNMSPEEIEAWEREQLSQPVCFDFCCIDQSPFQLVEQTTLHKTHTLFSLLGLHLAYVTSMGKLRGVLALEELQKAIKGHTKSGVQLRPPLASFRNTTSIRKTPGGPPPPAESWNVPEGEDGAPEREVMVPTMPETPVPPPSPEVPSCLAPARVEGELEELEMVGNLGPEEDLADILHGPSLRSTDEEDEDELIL
Source text: Table 2: Inhibition of CIC-1 ion channel using compounds of the invention

[2] = test system: soleus muscles; test: Measurement of force in an in vitro model: recovery of contractile force of isolated rat soleus nerve-muscle preparation after tubocurarine; settings: Rattus norvegicus, 40 min; 50 µM test compound, after 90 mins 115 nM tubocurarine; percentage of the initial force restored after 40 mins of compound exposure; read-out: Point increase
Experimental: Recovery of force is quantified as the percentage of the force prior to tubocurarine that is recovered by the compound.
The current invention relates to compounds that inhibit CIC-1 ion channels and increase muscle excitability and thereby improve muscle function in clinical conditions where muscle activation is failing. Such conditions result in loss of contractile function of skeletal muscle, weakness and excessive fatigue. In this series of experiments the compounds were tested for their ability to restore contractile function of isolated rat muscle when the neuromuscular transmission had been compromised akin to neuromuscular disorders.
Experimentally, soleus muscles from 4-5 week old rats were isolated with the motor nerve remaining attached. The nerve-muscle preparations were mounted in experimental setups that enabled electrical stimulation of the motor nerve. Stimulation of the motor nerve led to activation of the muscle fibres and ensuing force production that was recorded.
After mounting the nerve-muscle preparation in the experimental setup, the contractile function of the muscle was initially assessed under the control conditions (Figure 2A). […] The experimental condition mimics the failing neuromuscular transmission in a range of neuromuscular disorders. After addition of tubocurarine the contractile force declined over the next 90 mins to 10-50 % of the control force. 50 µM of the test compound was then added and the contractile force recovered despite the continued presence of tubocurarine. To quantify the ability of the compound to restore force the percentage of the initial force that was restored was determined after 40 mins of compound exposure (Figure 2B) and the point increase is reported in Table 3. Table 3: Percentage increase of initial force that was restored

[3] = target: T2, human CIC-1 channels (Homo sapiens, UniProt P35523); test: Automated patch-clamp on the human isoform of CIC-1 expressed in CHO cells; format: cell-based; settings: compound added intracellularly vs control cell patches; positive shift reflects CIC-1 inhibition
T2 construct: host or cells: CHO cells constitutively expressing human ClC-1
Experimental: The investigatory goal of these experiments was to evaluate how compounds affect the open probability and current amplitude of human CIC-1 channels expressed in CHO cells. Experiments were performed using an automated patch clamp system that allowed high throughput testing of whole cell patches together with both intracellular and extracellular addition of compound.
Automated whole cell patch clamp experiments were performed with the Qpatch 16 system (Sophion Bioscience, Ballerup, Denmark) at room temperature. Data acquisition and analysis were performed in the Qassay software (ver. 5.6, Odense).
To evoke CIC-1 currents in whole cell patches, the membrane potential was initially stepped from a holding potential of -30 mV to +60 mV for 100 ms and then to various test voltages (sweeps) ranging from +120 mV to -140 mV in steps of 20 mV for 300 ms. To obtain tail currents, the membrane potential was stepped to -100 mV after each test voltage for 300 ms and then relaxed to -30 mV for 2 sec between sweeps (Figure 3). I/V relationships for whole cell instant and steady state current amplitudes were obtained by plotting average current densities at the beginning and at the end of the 300 ms step against the membrane potential (Figure 4).
In order to determine the relative overall open probability (P0), the instantaneous tail currents were normalized to the maximal tail current obtained following the most positive voltage step and plotted against the test voltage. Plots of normalized tail currents from each whole cell patch were then fitted to a Boltzmann function allowing determination of half activation voltages (V1/2, Figure 5).
For automated patch clamp experiments extracellular solutions contained: 2 mM CaCl2, 1 mM MgCl2, 10 mM HEPES, 4 mM KCI, 145 mM NaCl, 10 mM Glucose, pH adjusted to 7.4 with NaOH (2 M). Osmolality adjusted to ~320 using sucrose.
Intracellular solutions contained: 80 mM CsF, 60 mM CsCI, 5/1 mM KOH/EGTA, 10 mM HEPES, 10 mM NaCl, pH adjusted to 7.2 with NaOH (2 M). Osmolality adjusted to ~320 mOsm using sucrose.
Cells used in patch clamp experiments were Chinese hamster ovary cells (CHO) constitutively expressing human CIC-1 channels. The amino acid sequence encoded by the cDNA used to create this cell line was identical to the translated sequence for GenBank accession number NM_000083.2. Cells were produced by Charles River (Catalogue CT6175, Cleveland OH, USA) in a cryopreserved format. Experiments were performed on the cells directly after thawing (3 × 10^6 cells used in each experiment).
To evaluate the compound effect on CIC-1, when applied directly to the intracellular side of the cell membrane, the half activation voltage, V1/2, was determined from whole cell patches with compound added to the intracellular solution and then compared to V1/2 determined from control cell patches with only vehicle added to the intracellular solution. Additionally, the effect of extracellular added compound was evaluated by determine V1/2 and steady state current amplitudes before and after exchanging the extracellular solution to contain compound.
The difference in half activation voltage of CIC-1 channels, ΔV1/2, was determined as the difference between the cell patches treated intracellularly with compound and control cells patches and is reported in Table 4 below. A positive shift in ΔV1/2 is reflecting CIC-1 channel inhibition by the tested compound. P-values of <0.05 is considered significant. […]

[4] = test system: Lewis rats; test: Measurement of in situ muscle contractile characteristics (isometric hindlimb force under cisatracurium block); format: in vivo; settings: 21.5 mg/kg i.v., cisatracurium infusion, 3 experiments
Experimental: Isometric hindlimb force was measured in 12-week old female Lewis rats in the presence and absence of compound.
Rats were placed under anesthesia with isoflurane (2-4%), intubated and subsequently connected to a micro ventilator (Microvent 1, Hallowell EMC, US). Two stimulation electrodes were inserted through the skin to stimulate the sciatic nerve. A small incision was made proximal to the ankle, to expose the Achilles tendon, which was tied by cotton string, and connected to a force transducer (Fort250, World Precision Instruments) with adjustable position (Vernier control). The Achilles tendon was then cut distal to the attached cotton string. The rat was placed on a heated pad, and to prevent movement artefacts from contraction of the ankle dorsiflexors, the foot was fixated by tape on a footplate.
Muscle contractile properties were assessed by applying an electrical current (under supramaximal voltage conditions) to the nerve and recording the force generated by the muscle. The muscle was stretched until maximal force was obtained, when assessed by 2 Hz stimulation. Isometric force was measured every 30 seconds at 12 Hz (Twitch), 10 pulses, and at every 5 minutes at 80 Hz (Tetanic) for 1 second (80 pulses). This stimulation pattern was employed throughout the experiment, expect in few cases where 80 Hz stimulation was replaced by 12 Hz (10 pulses). […] When the level of neuromuscular inhibition was stable, the test article was injected i.v. at the chosen concentration. The effect of test article was assessed on its ability to increase force generated from the stimulation pattern applied. The effect was assessed in the ability to increase force per se (tetanic, 80 Hz, stimulation), and the ratio between individual twitch peaks (12 Hz stimulation). The effect was monitored for at least 1 hour after injection of test article. In addition, the time from injection of test article to maximal effect on force (both twitch and tetanic) was noted and the time for the effect to disappear (return to baseline), if possible. When appropriate the infusion of neuromuscular blocking agent was ceased, with the stimulation pattern continued, and the return of force to control levels was monitored. Animals were sacrificed by cervical dislocation while still fully sedated.

T2 sequence (P35523 whole entry, canonical isoform): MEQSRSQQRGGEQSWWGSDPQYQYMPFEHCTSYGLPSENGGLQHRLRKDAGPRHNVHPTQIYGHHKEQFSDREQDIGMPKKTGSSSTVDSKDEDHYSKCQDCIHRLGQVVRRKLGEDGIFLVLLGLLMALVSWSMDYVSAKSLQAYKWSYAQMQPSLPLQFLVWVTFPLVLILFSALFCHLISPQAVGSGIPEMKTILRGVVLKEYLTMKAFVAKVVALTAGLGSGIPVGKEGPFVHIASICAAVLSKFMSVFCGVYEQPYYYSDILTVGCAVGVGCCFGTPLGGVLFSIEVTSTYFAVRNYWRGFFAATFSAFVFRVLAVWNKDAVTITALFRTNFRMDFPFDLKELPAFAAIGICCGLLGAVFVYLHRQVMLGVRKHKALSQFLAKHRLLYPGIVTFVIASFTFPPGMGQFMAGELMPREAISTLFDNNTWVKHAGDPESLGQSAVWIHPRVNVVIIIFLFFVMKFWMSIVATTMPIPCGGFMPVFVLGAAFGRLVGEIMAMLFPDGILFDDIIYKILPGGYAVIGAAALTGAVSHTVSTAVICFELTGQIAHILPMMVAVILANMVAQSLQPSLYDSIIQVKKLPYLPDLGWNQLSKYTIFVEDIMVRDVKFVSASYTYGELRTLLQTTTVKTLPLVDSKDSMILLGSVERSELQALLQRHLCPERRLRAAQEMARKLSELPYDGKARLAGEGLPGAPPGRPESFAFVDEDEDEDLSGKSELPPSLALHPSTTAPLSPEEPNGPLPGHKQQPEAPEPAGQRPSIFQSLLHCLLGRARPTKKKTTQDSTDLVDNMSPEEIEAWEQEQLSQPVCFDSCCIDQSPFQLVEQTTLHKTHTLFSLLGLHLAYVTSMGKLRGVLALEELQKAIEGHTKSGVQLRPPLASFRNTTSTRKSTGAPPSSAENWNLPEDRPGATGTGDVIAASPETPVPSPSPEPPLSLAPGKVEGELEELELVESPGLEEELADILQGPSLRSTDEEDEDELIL

SMILES | EC50 [1] [µM] | ΔV1/2 [3] [mV] | activation at 50 µM [2] [%] | also measured
C#Cc1cc(Br)ccc1O[C@H](C(=O)O)C1CCC1 [Compound A-46, (2S)-2-(4-bromo-2-ethynylphenoxy)-2-cyclobutylacetic acid] | 6.1 |  |  | 
C#Cc1cc(Br)c(F)cc1O[C@@H](C)C(=O)O [Compound A-47, (2S)-2-(4-bromo-2-ethynyl-5-fluorophenoxy)propanoic acid] |  |  | 15 | 
C#Cc1cc(Cl)c(F)cc1O[C@@H](C)C(=O)O [Compound A-48, (2S)-2-(4-chloro-2-ethynyl-5-fluorophenoxy)propanoic acid] |  |  | 14 | 
[2H]C([2H])(C)C(=O)c1cc(Cl)ccc1O[C@@H](C)C(=O)O [Compound A-27, (2S)-2-{4-chloro-2-[(2,2-^2H2)propanoyl]phenoxy}propanoic acid] | 8.3 |  | 36 | 
C#Cc1cc(Br)ccc1OCC(=O)O [Compound A-56, 2-(4-bromo-2-ethynylphenoxy)acetic acid] |  |  | 14 | 
O=C(O)COc1ccc(Br)cc1C1CC1 [Compound A-55, 2-(4-bromo-2-cyclopropylphenoxy)acetic acid] | 6.4 |  | 25 | 
CCC(=O)c1cc(Cl)ccc1O[C@@H](C)C(=O)O [Compound A-30, (2S)-2-(4-chloro-2-propanoylphenoxy)propanoic acid] |  | 6.2 |  | 
C[C@H](Oc1cc(F)c(Br)cc1C1CC1)C(=O)O [Compound A-44, (2S)-2-(4-bromo-2-cyclopropyl-5-fluorophenoxy)propanoic acid] |  |  | 12 | 

More lines, main results first:

EC50 [1] [µM] | ΔV1/2 [3] [mV] | SMILES | activation at 50 µM [2] [%] | also measured
 | 26.4 | C#Cc1cc(Cl)ccc1O[C@@H](C)C(=O)O [Compound A-20, (2S)-2-(4-chloro-2-ethynylphenoxy)propanoic acid] |  | 
 | 9.2 | C[C@H](Oc1ccc(Br)cc1C1CC1)C(=O)O [Compound A-2, (2S)-2-(4-bromo-2-cyclopropylphenoxy)propanoic acid] |  | change in twitch peaks ([4]; 12 Hz stimulation): no significant change; average increase in tetanic force ([4]; 80 Hz stimulation): 28.5%
 | 8.8 | C[C@H](Oc1ccc(Cl)cc1C1CC1)C(=O)O [Compound A-4, (2S)-2-(4-chloro-2-cyclopropylphenoxy)propanoic acid] |  | 
7.2 ± 3.5 |  | C#Cc1cc(Br)ccc1O[C@@H](CC)C(=O)O [Compound A-54, (2S)-2-(4-bromo-2-ethynylphenoxy)butanoic acid] | 18 | 
3.7 | 21.5 | C[C@H](Oc1ccc(Br)cc1C=C(F)F)C(=O)O [Compound A-36, (2S)-2-[4-bromo-2-(2,2-difluoroethenyl)phenoxy]propanoic acid] | 16 | 
4 ± 3 |  | C=Cc1cc(Br)ccc1O[C@@H](CCF)C(=O)O [Compound A-51, (2S)-2-(4-bromo-2-ethenylphenoxy)-4-fluorobutanoic acid] | 27 | 
4.3 ± 2.3 |  | C[C@H](Oc1ccc(Br)cc1C1CCC1)C(=O)O [Compound A-14, (2S)-2-(4-bromo-2-cyclobutylphenoxy)propanoic acid] | 17 | 
3 |  | C[C@H](Oc1ccc(Br)cc1/C=C/F)C(=O)O [Compound A-52, (2S)-2-{4-bromo-2-[(1E)-2-fluoroethenyl]phenoxy}propanoic acid] |  | 
4.2 ± 0.7 | 10.3 | C=Cc1cc(Br)ccc1O[C@@H](C)C(=O)O [Compound A-17, (2S)-2-(4-bromo-2-ethenylphenoxy)propanoic acid] | 21 | 
